Assay results taken from PubChem BioAssay (NCI).
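Each compound was tested at five concentrations against cells in 96-well plates for 48 hours. TGI marks complete inhibition of growth.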

How the values were obtained:
Assay in all cases: NCI tumour cell line growth inhibition, 48 h
RXF-631 renal = tested on: RXF-631 renal
DMS 114 small cell lung = tested on: DMS 114 small cell lung
DLD-1 colon = tested on: DLD-1 colon
LXFL 529 NSCLC = tested on: LXFL 529 NSCLC
SNB-78 CNS = tested on: SNB-78 CNS
KM20L2 colon = tested on: KM20L2 colon
XF 498 CNS = tested on: XF 498 CNS
SN12K1 renal = tested on: SN12K1 renal
P388 leukemia = tested on: P388 leukemia
P388/ADR leukemia = tested on: P388/ADR leukemia

SMILES: Cn1cnc([N+](=O)[O-])c1Sc1nnc(-c2ccc(Cl)cc2)n1C
- TGI (RXF-631 renal): 30.9 µM
- TGI (DMS 114 small cell lung): 30.5 µM
- TGI (DLD-1 colon): 26.3 µM
- TGI (LXFL 529 NSCLC): 22.3 µM
- TGI (SNB-78 CNS): 31.9 µM

SMILES: CC(=O)Nc1ccc(S(=O)(=O)Nc2cnc3ccccc3n2)cc1
- TGI (KM20L2 colon): > 100 µM
- TGI (DMS 114 small cell lung): > 100 µM
- TGI (DLD-1 colon): > 100 µM
- TGI (LXFL 529 NSCLC): > 100 µM
- TGI (XF 498 CNS): > 100 µM

SMILES: O=C1C(Nc2ccc(S(=O)(=O)Nc3cnc4ccccc4n3)cc2)=CC(=Nc2ccc(S(=O)(=O)Nc3cnc4ccccc4n3)cc2)c2ccccc21
- TGI (KM20L2 colon): 32 µM
- TGI (DMS 114 small cell lung): 38 µM
- TGI (DLD-1 colon): 31.8 µM
- TGI (LXFL 529 NSCLC): 29.5 µM
- TGI (XF 498 CNS): 59.2 µM
- TGI (SNB-78 CNS): 47.3 µM

SMILES: CCN1CC2(CO)CCC(OC)C34C5CC6C(OC)CC(O)(C5C6OC)C(O)(C(OC)C23)C14 (stereo not drawn)
- TGI (KM20L2 colon): > 375 µM
- TGI (DMS 114 small cell lung): > 375 µM
- TGI (DLD-1 colon): > 59.4 µM
- TGI (SN12K1 renal): > 375 µM
- TGI (XF 498 CNS): > 375 µM
- TGI (P388 leukemia): > 174 µM
- TGI (P388/ADR leukemia): > 80.8 µM
- TGI (SNB-78 CNS): > 375 µM

SMILES: C=C1C(=O)OC2C=C(C)CC3C=C(CCC=C(C)CCC12)C(=O)O3 (stereo not drawn)
- TGI (KM20L2 colon): 119 µM
- TGI (DMS 114 small cell lung): 151 µM
- TGI (DLD-1 colon): 137 µM
- TGI (SN12K1 renal): 123 µM
- TGI (P388 leukemia): 85.1 µM
- TGI (P388/ADR leukemia): 93.2 µM
- TGI (SNB-78 CNS): 222 µM

SMILES: CCN(CC)CCNC(=O)C1COc2ccc(-c3cc(=O)c4ccccc4o3)cc2O1 (stereo not drawn)
- TGI (KM20L2 colon): 39 µM
- TGI (DLD-1 colon): > 77.7 µM
- TGI (SN12K1 renal): 31.1 µM
- TGI (XF 498 CNS): 37.3 µM
- TGI (P388 leukemia): 21.7 µM
- TGI (P388/ADR leukemia): 37.1 µM
- TGI (SNB-78 CNS): 38.6 µM
